According to patent US8742110B2, “Spiroxazolidinone compounds” (Merck Sharp & Dohme Corp., priority 2010, dated 2014):
Counter-ions that a name gives are not always drawn.

Molecular target: SSTR5 (Homo sapiens (Human), UniProt P35346)
Experiment: SSTR5 binding assay
Details: CHO-K1 membranes expressing cloned human SSTR5
How it was run: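 Competition binding on membranes from CHO-K1 cells stably expressing cloned human receptor, using radiolabeled somatostatin in 50 mM Tris-HCl pH 7.8 with EGTA, MgCl2 and protease inhibitors. Unlabeled compounds tested from 0.01 nM to 10,000 nM.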

SSTR5, sequence (P35346 whole entry): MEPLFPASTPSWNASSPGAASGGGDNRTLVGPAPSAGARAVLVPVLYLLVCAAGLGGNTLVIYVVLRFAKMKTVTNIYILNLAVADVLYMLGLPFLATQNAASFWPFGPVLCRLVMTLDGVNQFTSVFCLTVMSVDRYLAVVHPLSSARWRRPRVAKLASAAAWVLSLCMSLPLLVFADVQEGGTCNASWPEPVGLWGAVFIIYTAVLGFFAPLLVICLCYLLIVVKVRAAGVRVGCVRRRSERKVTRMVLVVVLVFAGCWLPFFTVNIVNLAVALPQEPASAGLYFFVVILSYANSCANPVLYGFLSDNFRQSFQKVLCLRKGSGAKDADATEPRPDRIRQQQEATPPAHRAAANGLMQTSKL

Point of comparison: `COc1ccc(-c2nn(C(C)(C)C)cc2CN2CCC3(CC2)CN(c2ccc(C(=O)O)cc2)C(=O)O3)c(F)c1` [Example 1-32, 4-(8-{[1-tert-Butyl-3-(2-fluoro-4-methoxyphenyl)-1H-pyrazol-4-yl]methyl}-2-oxo-1-oxa-3,8-diazaspiro[4.5]dec-3-yl)benzoic acid, TFA salt], IC50 2.05 nM. Against it:
- CCOc1cc(CN2CCC3(CC2)CN(c2cncc(C(=O)O)c2)C(=O)O3)cc(OCC)c1-c1ccc(F)cc1 [Example 3-5, 5-{8-[(2,6-Diethoxy-4′-fluorobiphenyl-4-yl)methyl]-2-oxo-1-oxa-3,8-diazaspiro[4.5]dec-3-yl}pyridine-3-carboxylic acid, TFA salt] — within 1.5-fold, 2.12 nM
- CC(C)(C)Cn1nc(CN2CCC3(CC2)CN(c2ccc(C(=O)O)cc2)C(=O)O3)c2cc(F)ccc21 [Example 6-10, 4-(8-{[1-(2,2-Dimethylpropyl)-5-fluoro-1H-indazol-3-yl]methyl}-2-oxo-1-oxa-3,8-diazaspiro[4.5]dec-3-yl)benzoic acid, TFA salt] — 67-fold higher, 137 nM
- Cc1ccc(-n2cc(CN3CCC4(CC3)CN(c3ccc(C(=O)O)cc3)C(=O)O4)c(-c3ccc(F)c(F)c3F)n2)c(C)c1 [Example 1-6, 4-(8-{[1-(2,4-Dimethylphenyl)-3-(2,3,4-trifluorophenyl)-1H-pyrazol-4-yl]methyl}-2-oxo-1-oxa-3,8-diazaspiro[4.5]dec-3-yl)benzoic acid, TFA salt] — within 1.5-fold, 1.54 nM
- COc1ccc2c(CN3CCC4(CC3)CN(c3ccc(C(=O)O)cc3)C(=O)O4)cn(C)c2c1 [Example 6-19, 4-{8-[(6-Methoxy-1-methyl-1H-indol-3-yl)methyl]-2-oxo-1-oxa-3,8-diazaspiro[4.5]dec-3-yl}benzoic acid, TFA salt] — 3.3-fold higher, 6.79 nM
- O=C(O)c1ccc(N2CC3(CCN(Cc4cn(-c5ccccc5)nc4-c4ccccc4)CC3)OC2=O)cc1 [Example 1-3, 4-{8-[(1,3-Diphenyl-1H-pyrazol-4-yl)methyl]-2-oxo-1-oxa-3,8-diazaspiro[4.5]dec-3-yl}benzoic acid, TFA salt] — within 1.5-fold, 2.81 nM
- COc1ccc(-c2nc(C3CCCCC3)sc2CN2CCC3(CC2)CN(c2ccc(C(=O)O)cc2)C(=O)O3)cc1 [Example 6-28, 4-(8-{[2-Cyclohexyl-4-(4-methoxyphenyl)-1,3-thiazol-5-yl]methyl}-2-oxo-1-oxa-3,8-diazaspiro[4.5]dec-3-yl)benzoic acid, TFA salt] — 1.5-fold lower, 1.34 nM
- CCOc1cc(CN2CCC3(CC2)CN(c2cncc(O)c2)C(=O)O3)cc(OCC)c1-c1ccc(F)cc1 [Example 3-2, 8-[(2,6-Diethoxy-4′-fluorobiphenyl-4-yl)methyl]-3-(5-hydroxypyridin-3-yl)-1-oxa-3,8-diazaspiro[4.5]decan-2-one, TFA salt] — within 1.5-fold, 1.46 nM
- COc1ccc(-c2nc(C(C)(C)C)sc2CN2CCC3(CC2)CN(c2ccc(C(=O)O)cc2)C(=O)O3)cc1 [Example 6-29, 4-(8-{[2-tert-Butyl-4-(4-methoxyphenyl)-1,3-thiazol-5-yl]methyl}-2-oxo-1-oxa-3,8-diazaspiro[4.5]dec-3-yl)benzoic acid, TFA salt] — 2.9-fold lower, 0.705 nM
- COc1ccc(-c2nn(-c3ccccc3)cc2CN2CCCC3(CC2)CN(c2ccc(C(=O)O)cc2)C(=O)O3)cc1 (centres unmarked) [Example 2-15, 4-(8-{[3-(4-Methoxyphenyl)-1-phenyl-1H-pyrazol-4-yl]methyl}-2-oxo-1-oxa-3,8-diazaspiro[4.6]undec-3-yl)benzoic acid, TFA salt] — 29-fold higher, 58.7 nM
- CCOc1cc(CN2CCC3(CC2)CN(c2ccc(C(=O)O)c(F)c2)C(=O)O3)cc(OCC)c1-c1ccc(F)cc1 [Example 3-18, 4-{8-[(2,6-Diethoxy-4′-fluorobiphenyl-4-yl)methyl]-2-oxo-1-oxa-3,8-diazaspiro[4.5]dec-3-yl}-2-fluorobenzoic acid, TFA salt] — 1.8-fold lower, 1.15 nM
- CCCn1nc(Cc2cc(F)c(F)cc2F)c(CN2CCC3(CC2)CN(c2ccc(C(=O)O)cc2)C(=O)O3)c1Cl [Example 1-46, 4-(8-{[5-Chloro-1-propyl-3-(2,4,5-trifluorobenzyl)-1H-pyrazol-4-yl]methyl}-2-oxo-1-oxa-3,8-diazaspiro[4.5]dec-3-yl)benzoic acid, TFA salt] — 20-fold higher, 40.9 nM
- CCOc1cc(CN2CCC3(CC2)CN(c2ccc(C(=O)O)cc2)C(=O)O3)cc2cnc(C(F)(F)F)cc12 [Example 5-8, 4-(8-{[5-Ethoxy-3-(trifluoromethyl)isoquinolin-7-yl]methyl}-2-oxo-1-oxa-3,8-diazaspiro[4.5]dec-3-yl)benzoic acid, TFA salt] — 4.8-fold lower, 0.424 nM
- O=C(O)c1ccc(N2CC3(CCN(Cc4nc5ccccn5c4-c4cc(F)c(F)cc4F)CC3)OC2=O)cc1 [Example 6-36, 4-(2-Oxo-8-{[3-(2,4,5-trifluorophenyl)imidazo[1,2-a]pyridin-2-yl]methyl}-1-oxa-3,8-diazaspiro[4.5]dec-3-yl)benzoic acid, TFA salt] — 590-fold higher, 1200 nM
- CC(C)n1cc(CN2CCC3(CC2)CN(c2ccc(C(=O)O)cc2)C(=O)O3)c2cc(-c3ccc(F)c(F)c3F)ccc21 [Example 6-24, TFA salt] — 6-fold lower, 0.342 nM
- CCOc1ccc(-c2nn(-c3ccccc3)cc2CN2CCC3(CC2)CN(c2ccc(C(=O)O)cc2)C(=O)O3)cc1 [Example 1-12, 4-(8-{[3-(4-Ethoxyphenyl)-1-phenyl-1H-pyrazol-4-yl]methyl}-2-oxo-1-oxa-3,8-diazaspiro[4.5]dec-3-yl)benzoic acid, TFA salt] — 2.6-fold higher, 5.32 nM
- CC(C)(C)n1cc(CN2CCC3(CC2)CN(c2ccc(C(=O)O)cc2)C(=O)O3)c(-c2ccc(F)cc2F)n1 [Example 1-30, 4-(8-{[1-tert-Butyl-3-(2,4-difluorophenyl)-1H-pyrazol-4-yl]methyl}-2-oxo-1-oxa-3,8-diazaspiro[4.5]dec-3-yl)benzoic acid, TFA salt] — within 1.5-fold, 1.95 nM
- COc1ccc2c(c1)c(CN1CCC3(CC1)CN(c1ccc(C(=O)O)cc1)C(=O)O3)cn2C(C)C [Example 6-26, 4-(8-{[5-Methoxy-1-(propan-2-yl)-1H-indol-3-yl]methyl}-2-oxo-1-oxa-3,8-diazaspiro[4.5]dec-3-yl)benzoic acid, TFA salt] — within 1.5-fold, 1.45 nM
- O=C(O)c1ccc(N2CC3(CCN(Cc4cn(-c5ccccc5)nc4-c4ccc(F)c(Cl)c4)CC3)OC2=O)cc1 [Example 1-34, 4-(8-{[3-(3-Chloro-4-fluorophenyl)-1-phenyl-1H-pyrazol-4-yl]methyl}-2-oxo-1-oxa-3,8-diazaspiro[4.5]dec-3-yl)benzoic acid, TFA salt] — 2.3-fold higher, 4.67 nM
- CC(C)(C)n1cc(CN2CCC3(CC2)CN(c2ccc(C(=O)O)c(Cl)c2)C(=O)O3)c(-c2cc(F)c(Cl)cc2F)n1 [Example 1-13, 4-(8-{[1-tert-Butyl-3-(4-chloro-2,5-difluorophenyl)-1H-pyrazol-4-yl]methyl}-2-oxo-1-oxa-3,8-diazaspiro[4.5]dec-3-yl)-2-chlorobenzoic acid, TFA salt] — 2-fold higher, 4.09 nM
- COc1cccc(-c2nn(-c3ccccc3)cc2CN2CCC3(CC2)CN(c2ccc(C(=O)O)cc2)C(=O)O3)c1 [Example 1-22, 4-(8-{[3-(3-Methoxyphenyl)-1-phenyl-1H-pyrazol-4-yl]methyl}-2-oxo-1-oxa-3,8-diazaspiro[4.5]dec-3-yl)benzoic acid, TFA salt] — 2.4-fold higher, 4.87 nM
- O=C(O)c1ccc(N2CC3(CCN(Cc4cn(-c5ccccc5)nc4-c4ccc(OC(F)(F)F)cc4)CC3)OC2=O)cc1 [Example 1-27, 4-[2-Oxo-8-({1-phenyl-3-[4-(trifluoromethoxy)phenyl]-1H-pyrazol-4-yl}methyl)-1-oxa-3,8-diazaspiro[4.5]dec-3-yl]benzoic acid, TFA salt] — 6.3-fold higher, 12.9 nM
- CCOc1cc(CN2CCC3(CC2)CN(c2ccc(C4(C(=O)O)CC4)cc2)C(=O)O3)cc(OCC)c1-c1ccc(F)cc1 [Example 3-10, 1-(4-{8-[(2,6-Diethoxy-4′-fluorobiphenyl-4-yl)methyl]-2-oxo-1-oxa-3,8-diazaspiro[4.5]dec-3-yl}phenyl)cyclopropanecarboxylic acid, TFA salt] — 4.1-fold higher, 8.41 nM
- CCOc1cc(CN2CCC3(CC2)CN(c2cccc(C(=O)O)c2)C(=O)O3)cc(OCC)c1-c1ccc(F)cc1 [Example 3-14, 3-{8-[(2,6-Diethoxy-4′-fluorobiphenyl-4-yl)methyl]-2-oxo-1-oxa-3,8-diazaspiro[4.5]dec-3-yl}benzoic acid, TFA salt] — 4.5-fold higher, 9.15 nM
- O=C(O)c1ccc(N2CC3(CCN(Cc4cn(-c5cccc6c5OCCO6)nc4-c4ccc(F)c(F)c4F)CC3)OC2=O)cc1 [Example 1-21, 4-(8-{[1-(2,3-Dihydro-1,4-benzodioxin-5-yl)-3-(2,3,4-trifluorophenyl)-1H-pyrazol-4-yl]methyl}-2-oxo-1-oxa-3,8-diazaspiro[4.5]dec-3-yl)benzoic acid, TFA salt] — 1.6-fold higher, 3.21 nM
- COc1ccc2c(CN3CCC4(CC3)CN(c3ccc(C(=O)O)cc3)C(=O)O4)c[nH]c2c1 [Example 6-22, 4-{8-[(6-Methoxy-1H-indol-3-yl)methyl]-2-oxo-1-oxa-3,8-diazaspiro[4.5]dec-3-yl}benzoic acid, TFA salt] — 4.2-fold higher, 8.64 nM
- CCOc1cc(CN2CCC3(CC2)CN(c2ccc(-c4nn[nH]n4)cc2OC)C(=O)O3)cc(OCC)c1-c1ccc(F)cc1 [Example 3-7, 8-[(2,6-Diethoxy-4′-fluorobiphenyl-4-yl)methyl]-3-[2-methoxy-4-(2H-tetrazol-5-yl)phenyl]-1-oxa-3,8-diazaspiro[4.5]decan-2-one, TFA salt] — 3.4-fold higher, 7.06 nM
- O=C(O)c1ccc(N2CC3(CCN(Cc4cc5c(cc4-c4cc(F)c(F)cc4F)CCC5)CC3)OC2=O)cc1 [Example 4-19, 4-(2-Oxo-8-{[6-(2,4,5-trifluorophenyl)-2,3-dihydro-1H-inden-5-yl]methyl}-1-oxa-3,8-diazaspiro[4.5]dec-3-yl)benzoic acid, TFA salt] — 8.4-fold lower, 0.243 nM
- CCOc1cc(CN2CCC3(CC2)CN(c2ccc(C(=O)O)cc2)C(=O)O3)cc2c(OCC)cccc12 [Example 5-3, 4-{8-[(4,8-Diethoxynaphthalen-2-yl)methyl]-2-oxo-1-oxa-3,8-diazaspiro[4.5]dec-3-yl}benzoic acid, TFA salt] — 2.1-fold lower, 0.98 nM
